According to US9028845B2, “Chimeric immunomodulatory compounds and methods of using the same-IV” (Dynavax Technologies Corporation, priority 2001, dated 2015):
Entries after “also recorded” stand apart in the source; their conditions may differ.

Experiments:
human PBMCs = test: Human PBMC cytokine response assay (IFN-γ and IFN-α in cell-free medium by ELISA), with or without cPLGA; type: cell-based; conditions: for IFN-a / IFN-g / IFN-a mean / IFN-g mean: Table 25; for IFN-a mean / IFN-g mean: mean of donors 28250-28253; for immunomodulatory activity (IFN-γ / IFN-α secretion), in words: used alone (no cPLGA);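 on IFN-α (pg/ml) mean: 20 µg/mL compound for 24 hours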;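 on IFN-γ (pg/ml) mean: 20 µg/mL compound for 24 hours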
PBMCs = test: Human PBMC proliferation assay (3H-thymidine incorporation); type: cell-based; conditions: Experiment A; for mean cpm: 2 μg/ml
mice = test: Serum cytokines (IL-12 p40, IL-6, TNF-α) after subcutaneous injection in mice; type: in vivo; conditions: 20 ug subcutaneous, blood 2 hours later
Method: Blood was collected 2 hours later. For the LPS positive control group, mice were injected intraperitoneally with a 200 ul volume, and blood was collected 1.5 hours later (i.e., at the peak of LPS induced TNF-α activity). The blood was clotted and the serum was prepared and stored at −80° C. until assayed. Serum cytokines were assayed using Biosource cytoscreen kits for TNF-α and Pharmingen antibody pairs for mIL-6 and mIL-12. All samples were assayed in duplicate.

CD19+ B cells = test: Human B cell proliferation assay (3H-thymidine incorporation); conditions: 2 μg/ml; for cpm1 / cpm2 / cpm3 / mean cpm / mean of both: B cells
mouse splenocytes = test: Mouse splenocyte cytokine secretion (IL-6, IL-12, IFN by ELISA); type: cell-based, BALB/c mice; design: IFN: unit not given beside the values; conditions: 24 h
Method: Polynucleotides and chimeric compounds were tested for immunostimulatory activity on mouse splenocytes. Immunostimulation was assessed by measurement of cytokine secretion into the culture media. Cytokine levels in the culture supernatant were determined by enzyme-linked immunosorbent assay (ELISA) tests.
Cells were isolated and prepared using standard techniques. Spleens of 8 to 20 week-old BALB/c mice were harvested and the splenocytes isolated using standard teasing and treatment with ACK lysing buffer from BioWhittaker, Inc. Four spleens were pooled in this experiment. Isolated cells were washed in RPMI 1640 media supplemented with 2% heat-inactivated fetal calf serum (FCS), 50 μM 2-mercaptoethanol, 1% penicillin-streptomycin, and 2 mM L-glutamine and resuspended at approximately […] in 10% FCS/RPMI (RPMI 1640 media with 10% heat-inactivated FCS, 50 μM 2-mercaptoethanol, 1% penicillin-streptomycin, and 2 mM L-glutamine).
Cell cultures were set up in triplicate with approximately 7×10^5 cells/well in a 96-well flat microtiter plate in 100 μl 10% FCS/RPMI with the cells allowed to rest for at lest 1 hour after plating. The indicated test compounds were incubated (at the indicated concentrations) for 24 hours at 37° C. Cell supernatants were harvested and frozen at −80° C. Cytokine production by the cells was determined by ELISAs, as shown in 19.

[1] = donor 28250, polynucleotides/spacers at amounts equivalent to the CIC, spacers alone 9 uM
[2] = mean of Donors 1-2, 20 μg/ml, 24 h
[3] = mean of Donors 3-4, 20 μg/ml, 24 h
[4] = Donor 5, 20 μg/ml (mixtures: 20 μg/ml total), 24 h
[5] = Donor 6, 20 μg/ml (mixtures: 20 μg/ml total), 24 h
[6] = donor 28066, 20 ug/ml, 24 h, + PLGA = premixed with 100 μg/ml cPLGA
[7] = donor 28067, 20 ug/ml, 24 h, + PLGA = premixed with 100 μg/ml cPLGA
[8] = donor 28068, 20 ug/ml, 24 h, + PLGA = premixed with 100 μg/ml cPLGA
[9] = mean of Donors 5-6, 20 μg/ml (mixtures: 20 μg/ml total), 24 h
[10] = mean of Donors 7-8, 20 μg/ml, 24 h
[11] = mean of donors 28065-28068, 20 ug/ml, 24 h, + PLGA = premixed with 100 μg/ml cPLGA

For “5′-TCGTCGA-3′ [Compound P-1, reference compound]”, the “IFN-α (pg/ml) Donor 1” value (human PBMCs; 20 μg/ml, 24 h) was 0 pg/mL, the “IFN-γ (pg/ml) Donor 1” value (human PBMCs; 20 μg/ml, 24 h) was 8 pg/mL and the “IFN-α (pg/ml) Donor 2” value (human PBMCs; 20 μg/ml, 24 h) was 0 pg/mL. The “IFN-γ (pg/ml) Donor 2” value (human PBMCs; 20 μg/ml, 24 h) was 0 pg/mL, the “IFN-α (pg/ml) Donor 3” value (human PBMCs; Donor 3, 20 μg/ml, 24 h) was 0 pg/mL and the “IFN-γ (pg/ml) Donor 3” value (human PBMCs; Donor 3, 20 μg/ml, 24 h) was 1 pg/mL. For the same substance, the “IFN-α (pg/ml) Donor 4” value (human PBMCs; Donor 4, 20 μg/ml, 24 h) was 32 pg/mL, the “IFN-γ (pg/ml) Donor 4” value (human PBMCs; Donor 4, 20 μg/ml, 24 h) was 4 pg/mL and the IFN-a (human PBMCs; donor 28250) was 16 pg/mL. It also gave an IFN-g (human PBMCs; [1]) of 54 pg/mL, an IFN-a (human PBMCs; donor 28251) of 16 pg/mL and an IFN-g (human PBMCs; donor 28251) of 21 pg/mL. For the same substance, the IFN-a (human PBMCs; donor 28252) was 16 pg/mL, the IFN-g (human PBMCs; donor 28252) was 56 pg/mL and the IFN-a (human PBMCs; donor 28253) was 16 pg/mL. The IFN-g (human PBMCs; donor 28253) was 1 pg/mL, the IFN-a mean (human PBMCs) was 16 pg/mL and the IFN-g mean (human PBMCs) was 33 pg/mL. For the same substance, the “IFN-α (pg/ml) mean” value (human PBMCs; [2]) was 0 pg/mL, the “IFN-γ (pg/ml) mean” value (human PBMCs; [2]) was 4 pg/mL and the “IFN-α (pg/ml) mean” value (human PBMCs; [3]) was 16 pg/mL. For the same substance, the “IFN-γ (pg/ml) mean” value (human PBMCs; [3]) was 2 pg/mL, the “immunomodulatory activity (IFN-γ / IFN-α secretion), in words” value (human PBMCs) was “no activity; also recorded: did not have immunomodulatory activity” and the cpm1 (PBMCs; Donor 146, 2 μg/ml) was 9724 cpm. For the same substance, the cpm2 (PBMCs; Donor 146, 2 μg/ml) was 3041 cpm, the cpm3 (PBMCs; Donor 146, 2 μg/ml) was 2425 cpm and the mean cpm (PBMCs; Donor 146 mean) was 5063 cpm. The cpm1 (PBMCs; Donor 147, 2 μg/ml) was 1706 cpm, the cpm2 (PBMCs; Donor 147, 2 μg/ml) was 1960 cpm and the cpm3 (PBMCs; Donor 147, 2 μg/ml) was 324 cpm. For the same substance, the mean cpm (PBMCs; Donor 147 mean) was 1330 cpm, the mean of both (PBMCs; mean of Donors 146 and 147, 2 μg/ml) was 3197 cpm and the “induction of serum IL-12 p40, IL-6 and TNF-α, in words” value (mice) was “inactive”. The “B cell proliferation, in words” value (CD19+ B cells; 48 h plus 8 h 3H-thymidine pulse) was “little to no B cell proliferation”, the cpm1 (CD19+ B cells; Donor 146, Experiment A) was 761 cpm and the cpm2 (CD19+ B cells; Donor 146, Experiment A) was 608 cpm. The cpm3 (CD19+ B cells; Donor 146, Experiment A) was 721 cpm, the mean cpm (CD19+ B cells; Donor 146 mean, Experiment A) was 697 cpm and the cpm1 (CD19+ B cells; Donor 147, Experiment A) was 569 cpm. The cpm2 (CD19+ B cells; Donor 147, Experiment A) was 460 cpm, the cpm3 (CD19+ B cells; Donor 147, Experiment A) was 687 cpm and the mean cpm (CD19+ B cells; Donor 147 mean, Experiment A) was 572 cpm. The mean of both (CD19+ B cells; mean of Donors 146 and 147, Experiment A) was 634 cpm.
In the case of 5′-AACGTT-3′ [Compound P-11], the “induction of serum IL-12 p40, IL-6 and TNF-α, in words” value (mice) is reported as “inactive”.
For “5′-TCGTCG-3′-HEG-5′-ACGTTCG-3′-HEG-5′-AGATGAT-3′ [Compound C-10]”, the “IFN-α (pg/ml) Donor 1” value (human PBMCs; 20 μg/ml, 24 h) was 1662 pg/mL, the “IFN-γ (pg/ml) Donor 1” value (human PBMCs; 20 μg/ml, 24 h) was 1595 pg/mL and the “IFN-α (pg/ml) Donor 2” value (human PBMCs; 20 μg/ml, 24 h) was 50 pg/mL. The “IFN-γ (pg/ml) Donor 2” value (human PBMCs; 20 μg/ml, 24 h) was 952 pg/mL, the “IFN-α (pg/ml) Donor 5” value (human PBMCs; [4]) was 91 pg/mL and the “IFN-γ (pg/ml) Donor 5” value (human PBMCs; [4]) was 102 pg/mL. The “IFN-α (pg/ml) Donor 6” value (human PBMCs; [5]) was 1700 pg/mL, the “IFN-γ (pg/ml) Donor 6” value (human PBMCs; [5]) was 806 pg/mL and the “IFN-α (pg/ml) Donor 7” value (human PBMCs; Donor 7, 20 μg/ml, 24 h) was 46 pg/mL. The “IFN-γ (pg/ml) Donor 7” value (human PBMCs; Donor 7, 20 μg/ml, 24 h) was 23 pg/mL, the “IFN-α (pg/ml) Donor 8” value (human PBMCs; Donor 8, 20 μg/ml, 24 h) was 539 pg/mL and the “IFN-γ (pg/ml) Donor 8” value (human PBMCs; Donor 8, 20 μg/ml, 24 h) was 198 pg/mL. The IFN-α (human PBMCs; Table 9, donor 28089) was 17 pg/mL, the IFN-γ (human PBMCs; Table 9, donor 28089) was 35 pg/mL and the IFN-α (human PBMCs; Table 9, donor 28090) was 61 pg/mL. The IFN-γ (human PBMCs; Table 9, donor 28090) was 44 pg/mL, the IFN-α (human PBMCs; Table 9, donor 28098) was 187 pg/mL and the IFN-γ (human PBMCs; Table 9, donor 28098) was 174 pg/mL. For the same substance, the IFN-α (human PBMCs; Table 9, donor 28099) was 304 pg/mL, the IFN-γ (human PBMCs; Table 9, donor 28099) was 140 pg/mL and the IFN-α mean (human PBMCs; Table 9, mean of donors) was 142 pg/mL. It also gave an IFN-γ mean (human PBMCs; Table 9, mean of donors) of 98 pg/mL, an IFN-a (human PBMCs; donor 28250) of 16 pg/mL and an IFN-g (human PBMCs; [1]) of 337 pg/mL. The IFN-a (human PBMCs; donor 28251) was 23 pg/mL, the IFN-g (human PBMCs; donor 28251) was 163 pg/mL and the IFN-a (human PBMCs; donor 28252) was 25 pg/mL. For the same substance, the IFN-g (human PBMCs; donor 28252) was 776 pg/mL, the IFN-a (human PBMCs; donor 28253) was 124 pg/mL and the IFN-g (human PBMCs; donor 28253) was 898 pg/mL. The IFN-a mean (human PBMCs) was 47 pg/mL, the IFN-g mean (human PBMCs) was 544 pg/mL and the “IFN-γ (pg/ml) 28065” value (human PBMCs; donor 28065 (high background), 20 ug/ml, 24 h, + PLGA = premixed with 100 μg/ml cPLGA, 1000 = outside assay limits) was 1000 pg/mL. For the same substance, the “IFN-α (pg/ml) 28065” value (human PBMCs; donor 28065, 20 ug/ml, 24 h, + PLGA = premixed with 100 μg/ml cPLGA) was 116 pg/mL, the “IFN-α (pg/ml) 28066” value (human PBMCs; [6]) was 6 pg/mL and the “IFN-γ (pg/ml) 28066” value (human PBMCs; [6]) was 9 pg/mL. The “IFN-α (pg/ml) 28067” value (human PBMCs; [7]) was 107 pg/mL, the “IFN-γ (pg/ml) 28067” value (human PBMCs; [7]) was 51 pg/mL and the “IFN-α (pg/ml) 28068” value (human PBMCs; [8]) was 340 pg/mL. The “IFN-γ (pg/ml) 28068” value (human PBMCs; [8]) was 559 pg/mL, the “IFN-α (pg/ml) mean” value (human PBMCs; [2]) was 856 pg/mL and the “IFN-γ (pg/ml) mean” value (human PBMCs; [2]) was 1273 pg/mL. For the same substance, the “IFN-α (pg/ml) mean” value (human PBMCs; [9]) was 896 pg/mL, the “IFN-γ (pg/ml) mean” value (human PBMCs; [9]) was 454 pg/mL and the “IFN-α (pg/ml) mean” value (human PBMCs; [10]) was 293 pg/mL. For the same substance, the “IFN-γ (pg/ml) mean” value (human PBMCs; [10]) was 111 pg/mL, the “IFN-α (pg/ml) mean” value (human PBMCs; [11]) was 142 pg/mL and the “IFN-γ (pg/ml) mean” value (human PBMCs; [11]) was 405 pg/mL. The “immunomodulatory activity (IFN-γ / IFN-α secretion), in words” value (human PBMCs) was “did have immunomodulatory activity”, the IFN (mouse splenocytes; dose 0.1 μg/ml) was 9 and the IL-6 (mouse splenocytes; dose 0.1 μg/ml) was 9. For the same substance, the IL-12 (mouse splenocytes; dose 0.1 μg/ml) was 122, the IFN (mouse splenocytes; dose 1.0 μg/ml) was 104 and the IL-6 (mouse splenocytes; dose 1.0 μg/ml) was 1761. The IL-12 (mouse splenocytes; dose 1.0 μg/ml) was 1738, the IFN (mouse splenocytes; dose 5.0 μg/ml) was 199 and the IL-6 (mouse splenocytes; dose 5.0 μg/ml) was 3342. It also gave an IL-12 (mouse splenocytes; dose 5.0 μg/ml) of 2329, a cpm1 (CD19+ B cells; donor 121, Experiment B) of 15142 cpm and a cpm2 (CD19+ B cells; donor 121, Experiment B) of 14136 cpm. For the same substance, the cpm3 (CD19+ B cells; donor 121, Experiment B) was 16158 cpm, the mean cpm (CD19+ B cells; donor 121 mean, Experiment B) was 15145 cpm and the cpm1 (CD19+ B cells; donor 194, Experiment B) was 7480 cpm. The cpm2 (CD19+ B cells; donor 194, Experiment B) was 5458 cpm, the cpm3 (CD19+ B cells; donor 194, Experiment B) was 5943 cpm and the mean cpm (CD19+ B cells; donor 194 mean, Experiment B) was 6294 cpm. It also gave a mean of both (CD19+ B cells; mean of donors 121 and 194, Experiment B) of 10720 cpm.
